Data reported in patent US10370348B2, “Tocopherol and tocopheryl quinone derivatives as correctors of lysosomal storage disorders” (The United States of America, as represented by the …, priority 2012, dated 2019).

Tested on: wild type cells
Assay: Reduction of cholesterol levels in wild type cells
Format: cell-based
Conditions: with increasing concentration, FIG. 1A
Description: The half maximal effective concentration (EC-50) for delta-tocopherol and five analogues was measured in wild type and NPC 3123 cells. […] Further, in NPC cells (FIG. 1B), the cholesterol level drop was substantial relative to the control (no delta-tocopherol).

Cc1cc(O)cc2c1O[C@](C)(CCC[C@H](C)CCC[C@H](C)CCCC(C)C)CC2 [delta-tocopherol]
cholesterol levels in wild type cells: cholesterol levels dropped
